Data on four substances can be found in patent US7585843B2, “Treatment of demyelinating autoimmune disease with modified ordered peptides” (Bayhill Therapeutics, Inc., priority 2003, dated 2009).

“Also recorded” adds a separate entry of the source. Where two headings read alike, the source gives them in different places. Non-standard residues stand in square brackets, D forms with d. No end group written: not given here.

The test system of experiment [1] is PLPp139-151 specific T cell line. Briefly: T cell proliferation assay (FIG. 4). It is filed as cell-based. Here is the method: FIG. 4 is a graph showing the blocking by the therapeutic ordered peptide of T cell proliferation. The ability of MBP therapeutic ordered peptide (EYYKEYYKEYYK), substituted MBP therapeutic ordered peptide (D-Ala-EYYKEYYKEYYK-amide), or Copaxone to block the proliferation of a PLPp139-151 specific T cell line was measured in a proliferation assay.
The ability of therapeutic ordered peptide EYYKEYYKEYYK, modified therapeutic ordered peptide D-Ala-EYYKEYYKEYYK-amide, or Copaxone to block the proliferation of a PLPp139-151 specific T cell line was measured in a proliferation assay.

For experiment [2], the system named is T cell lines from immunized mice. Briefly: Cytokine production by T cell lines from immunized mice (FIG. 6). It is filed as cell-based. The following applies: T cell lines from mice immunized with the antigen. The source says:
OVA is known to cause an induction of Th1 type of T cells after immunization.
One of the mechanisms proposed for the efficacy of Copaxone in MS is the induction of Th2 type of antigen-specific T cells that are beneficial in treating the disease process.
In a similar protocol we immunized mice with D-ala modified ordered peptide, non-modified ordered peptide, and control peptides including Cop1 and ovalbumin (OVA). OVA is known to cause an induction of Th1 type of T cells after immunization.

For another experiment, the system named is mouse MHC class II. The experiment can be described thus: Blocking of native peptide binding to MHC by FACS (FIG. 3), mouse. The following applies: biotinylated peptide on spleen APCs. Here is the method: (§1) The ability of MBP therapeutic ordered peptide EYYKEYYKEYYK, substituted MBP therapeutic ordered peptide D-Ala-EYYKEYYKEYYK-amide, or Copaxone to block the binding of the native peptide to either a mouse or rat MHC was measured by FACS analysis.
(§2) Peptide binding to class II molecules was measured as follows. Briefly, APCs (antigen presenting cells) were purified from spleen cells by negative selection using magnetic beads (Dynal, Oslo, Norway) conjugated with antibodies specific for T cells (CD52), macrophages (CD45R), and NK cells (NKR-P1A) (Pharmingen, San Diego, Calif.). After selection, cells were plated at a concentration of 0.5×10^6 cells per well in flat bottom 96 well microtiter plates (Costar, Corning, N.Y.). Therapeutic ordered peptides were used as inhibitors are added to the wells at different concentrations (ranging from 0.01 to 0.24 mM) in a volume of 0.05 ml. After an hour of incubation at 37° C., 0.01 mM of biotinylated MBP, MOG, or PLP peptide was added. After four more hours of incubation, cells were harvested and binding of PE-Avidin to the cell surface was analyzed by FACS (Becton Dickinson, San Jose, Calif.). To determine the IC50 value of the therapeutic ordered peptide, for example EYYK, a linear regression curve was calculated using data points from 0.01 mM to […].

In experiment [3] the test system is EAE in Lewis rats. The experiment can be described thus: Blocking of EAE induction in Lewis rats, peptide mixed into encephalitogenic emulsion (FIG. 5). Type of experiment: in vivo, rat. The following applies: 0.5 mg mixed into MBPp85-99/CFA emulsion, 12-13 animals. The protocol: FIG. 5 is a graph showing the blocking of induction of EAE by the substituted D-Ala form of the therapeutic ordered peptide. Lewis rats were injected with an emulsion of 0.1 mg of MBPp85-99 in complete Freund's adjuvant for EAE induction. Either of 0.5 mg MBP therapeutic ordered peptide EYYKEYYKEYYK, substituted MBP therapeutic ordered peptide D-Ala-EYYKEYYKEYYK-amide, or Copaxone was mixed into the encephalitogenic emulsion. Results are expressed as mean disease score of 12-13 animals.
(§3) EAE induction. Synthetic peptide MBPp85-99 was dissolved in PBS to a concentration of 2 mg/ml and emulsified with and equal volume of Incomplete Freund's Adjuvant (IFA), supplemented with 4 mg/ml heat-killed Mycobacterium tuberculosis H37Ra (Difco Laboratories, Detroit, Mich.). Rats were injected subcutaneously with 0.1 ml of the peptide emulsion. Experimental animals were scored as follows: 0, no clinical disease; 1, tail weakness or paralysis; 2, hind limb weakness; 3, hind limb paralysis; 4, forelimb weakness or paralysis; 5, moribund or dead animal.
The ability of therapeutic ordered peptide EYYKEYYKEYYK, modified therapeutic ordered peptide D-Ala-EYYKEYYKEYYK-amide, or Copaxone to treat a rat model of EAE was tested. A single 0.5 mg dose of each of these peptides was administered along with the encephalitogen (MBP 85-99 peptide in CFA) as an emulsion.

The test system of another experiment is rat MHC class II. The experiment can be described thus: Blocking of native peptide binding to MHC by FACS (FIG. 3), rat. The following applies: biotinylated peptide on spleen APCs. The protocol:
as §1, §2

Experiment [4] relates to EAE in Lewis rats. Briefly: EAE treatment in Lewis rats, single dose at disease onset (FIG. 1). Type of experiment: in vivo, rat. The following applies: MBPp85-99-induced EAE, single intraperitoneal dose 0.5 mg in PBS at disease onset (day 10). Here is the method:
FIG. 1 is a graph showing the prevention of EAE in rats treated with therapeutic ordered peptides. […] Animals were injected with an emulsion of 0.1 mg of MBPp85-99 in complete Freund's adjuvant for EAE induction. Ten days later, when the clinical manifestations of disease became apparent, a single intra-peritoneal dose of MBP therapeutic ordered peptide {SEQ ID NO:4} EYYKEYYKEYYK (squares), {SEQ ID NO:5} KYYKYYKYYKYY (triangles), or PBS (circles)was administered. Results are expressed as mean disease score of groups of six animals.
Animals. Female Lewis rats (6-8 weeks old), were purchased from Harlan Sprague Dawley (Indianapolis, Ind.)
as §3
EAE treatment. Rats previously immunized with MBPp85-99 for EAE induction were scored from day eight after peptide injection. […]

The next experiment deals with EAE in mice. Briefly: Relapse rates in mice with ongoing EAE induced with PLPp139-151 (FIG. 2). Type of experiment: in vivo. The following applies: PLPp139-151-induced EAE; treated days 17, 29, 36; i.v., i.p. or s.c.; 0.5 or 0.05 mg per mouse; in mannitol. The protocol: FIG. 2 is a graph depicting the reduction in relapse rates in mice with EAE treated with ordered peptides. Animals were induced for EAE with an emulsion of 0.1 mg of PLPp139-151 in complete Freund's adjuvant (day 0). Mice were randomized into equal groups at the peak of disease and were treated at days 17, 29, and 36 after EAE induction with intravenous, intra-peritoneal or subcutaneous administration of EYYKEYYKEYYK (MBP therapeutic ordered peptide) or Copaxone at two different dosages, 0.5 mg per mouse or 0.05 mg per mouse. Both the MBP therapeutic ordered peptide and Copaxone were dissolved in mannitol.
Injection of ordered peptides containing TCR-MHC binding motifs reverse the development of EAE. In order to test the potential of the predicted sequences to revert the development of ongoing EAE we delivered a single dose of a PBS solution containing 0.5 mg of peptide in 0.25 ml. […] In addition, ordered peptide treatment was administered in a mouse model of ongoing-EAE (FIG. 2) at days 17, 29, and 36 after EAE induction with intravenous, intra-peritoneal or subcutaneous administration of EYYKEYYKEYYK (therapeutic ordered peptide) or Copaxone at two different dosages, 0.5 mg per mouse or 0.05 mg per mouse. Both the therapeutic ordered peptide and Copaxone were dissolved in mannitol.

For experiment [5], the system named is anti-MBP antibodies affinity-purified from CNS lesions. The experiment can be described thus: Inhibition of autoantibody binding to MBP. More on the design: species or system human. The following applies: antibodies from CNS lesions of 12 post-mortem MS cases. An excerpt:
Previously, we have compared the structural requirements for autoantibody recognition to those of T cell clones reactive to MBP p87-99. Anti-MBP antibodies were affinity-purified from CNS lesions of 12 post-mortem cases studied. The MBP p87-99 peptide was immunodominant in all cases and it inhibited autoantibody binding to MBP by more than 95%. Residues contributing to autoantibody binding were located in a 10-amino acid segment p86-95 ({SEQ ID NO:9} VVHFFKNIVT) that also contained the MHC-T cell receptor contact residues for T cells recognizing MBP in the context of DRB1*1501 and DQB1*0602. In the epitope center, the same residues, {SEQ ID NO:10} VHFFK, were important for T cell binding and MHC recognition. Recently, the crystal structure of HLA-DR2 with MBPp85-99 was solved, confirming the prediction that K91 is the major TCR contact residue, while F90 is a major anchor into the hydrophobic P4 pocket of the MHC molecule.

Consider “D-Ala-EYYKEYYKEYYK-amide ([dA]EYYKEYYKEYYK-NH2; N-terminus assumed; SMILES C[C@@H](N)C(=O)N[C@@H](CCC(=O)O)C(=O)N[C@@H](Cc1ccc(O)cc1)C(=O)N[C@@H](Cc1ccc(O)cc1)C(=O)N[C@@H](CCCCN)C(=O)N[C@@H](CCC(=O)O)C(=O)N[C@@H](Cc1ccc(O)cc1)C(=O)N[C@@H](Cc1ccc(O)cc1)C(=O)N[C@@H](CCCCN)C(=O)N[C@@H](CCC(=O)O)C(=O)N[C@@H](Cc1ccc(O)cc1)C(=O)N[C@@H](Cc1ccc(O)cc1)C(=O)N[C@@H](CCCCN)C(N)=O) [substituted (modified) MBP therapeutic ordered peptide]”, for which the figures for the “reduction in T cell proliferation” value in experiment [1], in experiment [1] (listed as D-Ala EYYK) and in experiment [1] (listed as D-ala EYYK) were “dose dependent reduction in T cell proliferation; also recorded: exceeds the reduction in T cell proliferation for either the unmodified ordered peptide or for Copaxone”, “dose dependent reduction in T cell proliferation; also recorded: exceeds the reduction in proliferation with either the unmodified ordered peptide or Copaxone” and “more effective in blocking T cell proliferation than the unmodified EYYK”, respectively. Besides, the IL4 production result in experiment [2] was “increased production of IL4 and IL10”. Also, the IL10 production entry in experiment [2] is “increased production of IL4 and IL10”. The “blocking of binding of native PLP peptide to mouse MHC class II (mean fluorescence intensity)” value with mouse MHC class II is on record as “more effective in blocking either MHC than the non-D-ala form”; in the experiment on mouse MHC class II (listed as D-Ala EYYK), “higher affinity of binding to these MHC's than the unmodified EYYK; also recorded: approaches the binding achieved by Copaxone”; in the experiment on mouse MHC class II (listed as D-ala-EYYK), “comparable amount of inhibition”. Besides, the “blocking of EAE induction, mean disease score” value with EAE in Lewis rats [3] is given as “more effective in blocking EAE induction than the un-substituted therapeutic ordered peptide; also recorded: superiority of the D-Ala form of the ordered peptide over the non-substituted form; also recorded: nearly reaches the efficacy of Copaxone”. Further, the “blocking of binding of native MBP peptide to rat MHC class II (mean fluorescence intensity)” value is “more effective in blocking either MHC than the non-D-ala form” in the experiment with rat MHC class II, “higher affinity of binding to these MHC's than the unmodified EYYK; also recorded: approaches the binding achieved by Copaxone” in the experiment with rat MHC class II (listed as D-Ala EYYK) and “comparable amount of inhibition” with rat MHC class II (listed as D-ala-EYYK).

In the case of “EYYKEYYKEYYK [MBP therapeutic ordered peptide, motif [EYYK]n with n=3]”, in the experiment with EAE in Lewis rats [4], the “EAE development, mean disease score” value is “prevents the development of EAE; also recorded: effective in preventing and treating experimental autoimmune encephalomyelitis”. In the experiment on mouse MHC class II, the “blocking of binding of native PLP peptide to mouse MHC class II (mean fluorescence intensity)” value is reported as “comparable amount of inhibition”. Moreover, the “relapse rates per mouse” value in the experiment on EAE in mice is “reduce relapse rates similarly”. Besides, in the experiment with rat MHC class II, the “blocking of binding of native MBP peptide to rat MHC class II (mean fluorescence intensity)” value is on record as “comparable amount of inhibition”.

Turning to “MBP p87-99: myelin basic protein peptide 87-99, immunodominant epitope (SRPHLIRLFSRDA; UniProt P02686 87-99, looked up, fragment)”, the “inhibition of autoantibody binding to MBP” value in experiment [5] is on record as “more than 95%”.

Take “OVA: ovalbumin, control known to cause an induction of Th1 type of T cells after immunization [reference compound]”: in experiment [2], the IL4 production entry is on record as “did not cause an increase in these cytokines” and the IL10 production entry was “did not cause an increase in these cytokines”.
